Results from patent publication US20080287534A1, “Method for Controlling Insect Pests on Plants” (priority 2005, published 2008).

What was measured:
Type in all cases: in vivo
[1] = test system: cabbage looper (Trichoplusia ni); experiment: Test B: control of cabbage looper by soil application to cabbage plants, excised-leaf feeding, visual mortality; details: 96 h, read-out: % Mortality (Observed)
Protocol: (§1) For evaluating control of cabbage looper (Trichoplusia ni) and tobacco budworm (Heliothis virescens), methomyl was in liquid formulation as Lannate® LV (29% of active ingredient). Oxamyl was in liquid formulation as Vydate® L (24% of active ingredient).
(§2) The test compounds were dissolved in water. Enough water was added to make 57 ppm of the Lannate® LV and 250 and 500 ppm of active ingredient for Vydate® L. To obtain the desired mixture concentrations of each compound, twice the desired concentration of each of the two mixture compounds were mixed together in equal volumes.
(§3) For the cabbage looper trial, diluted solutions (50 mL) of the test compounds were applied to the soil surface of five-week-old cabbage plants at the desired concentrations, corresponding to 135 g a.i./ha (g active ingredient/hectare) of methomyl and 404 and 807 g a.i./ha of oxamyl. For the tobacco budworm trial, diluted solutions (50 mL) of the test compounds were applied to the soil surface of five-week-old tomato plants at the desired concentrations, corresponding to 92 g a.i./ha (g active ingredient/hectare) of methomyl and 404 and 807 g a.i./ha of oxamyl. The plants were maintained in a greenhouse for 24 h. From each plant, leaves were excised, cut into pieces, and placed singly into 5.5 cm-by-3.5 cm cell of a sixteen-cell plastic tray. Each cell contained solidified agar (3 to 5 mL) to prevent desiccation. A single 4-day old insect larva was placed in each cell, with two trays per treatment. Trays were held in a growth chamber at 25° C., 16-hour light/8-hour dark photoperiod, 60% relative humidity for 4 days.

[2] = test system: tobacco budworm (Heliothis virescens); experiment: Test B: control of tobacco budworm by soil application to tomato plants, excised-leaf feeding, visual mortality; details: 96 h, read-out: % Mortality (Observed)
Protocol: as §1, §2, §3

[3] = test system: beet armyworm (Spodoptera exigua); experiment: Test A: control of beet armyworm by soil application to tomato plants, excised-leaf feeding, visual mortality
Protocol: For evaluating control of beet armyworm (Spodoptera exigua), methomyl was in liquid formulation as Lannate® LV (29% of active ingredient). Oxamyl was in liquid formulation as Vydate® L (24% active ingredient).
The test compounds were dissolved in water. Enough water was added to make 29 ppm of active ingredient for Lannate® LV and 500 ppm of active ingredient for Vydate® L. To obtain the desired mixture concentrations of each compound, twice the desired concentration of each of the two mixture partner compounds were mixed together in equal volumes.
Diluted solutions (50 mL) of the test compounds were applied to the soil surface of five-week-old tomato plants at the desired concentration, corresponding to 47 g a.i./ha (g active ingredient/hectare) of methomyl and 807 g a.i./ha of oxamyl. The plants were maintained in a greenhouse for 24 h. From each plant, leaves were excised, cut into pieces, and placed singly into 5.5 cm-by-3.5 cm cell of a sixteen-cell plastic tray. Each cell contained solidified agar (3 to 5 mL) to prevent desiccation. A single 4-day old insect larva was placed in each cell, with one tray per treatment. Trays were held in a growth chamber at 25° C., 16-hour light/8-hour dark photoperiod, 60% relative humidity for 4 days.

Structure (SMILES) | mortality at 404 g/ha ([1]; soil) | mortality at 807 g/ha ([1]; soil) | mortality at 404 g/ha ([2]; soil) | mortality at 807 g/ha ([2]; soil) | mortality at 807 g/ha ([3]; Spodoptera exigua, soil, 96 h, read-out: % mortality (observed)) | % mortality (observed) ([3]; oxamyl 807 g a.i./ha, soil application, five-week-old tomato plants, evaluated at 96 h) | mortality at 135 g/ha ([1]; methomyl 135 g a.i./ha, soil application, five-week-old cabbage plants) | mortality at 92 g/ha ([2]; methomyl 92 g a.i./ha, soil application, five-week-old tomato plants) | mortality at 47 g/ha ([3]; Spodoptera exigua, methomyl 47 g a.i./ha, soil application, five-week-old tomato plants, evaluated at 96 h, read-out: % mortality (observed))
CNC(=O)ON=C(SC)C(=O)N(C)C [Oxamyl, methyl 2-(dimethylamino)-N-[[(methylamino)-carbonyl]oxy]-2-oxoethanimidothioate] | 16% | 38% | 6% | 13% | 0% | no mortality | – | – | –
CNC(=O)ON=C(C)SC [Methomyl, methyl N-[[(methylamino)carbonyl]oxy]-ethanimidothioate] | – | – | – | – | – | – | 75% | 41% | 44%
